Measurements published in patent US20100310450A1, “METHOD OF DIAGNOSIS AND AGENTS USEFUL FOR SAME” (MEDVET SCIENCE PTY. LTD., priority 2006, published 2010).

Assays:
[1] = tested on: apoptotic Jurkat cells; assay: Inhibition by the TG2 inhibitor MDC of protein crosslinking and 3B9 binding in cisplatin-treated Jurkat cells; assay type: cell-based, human; conditions: 20 μg/mL cisplatin
Protocol: FIG. 18 depicts that La antigen is crosslinked during apoptosis. (A) Jurkat cells incubated in 20 μg/mL cisplatin were removed at specified time points and incubated for 10 min. in 1% Triton X-100 solution before 3B9 binding analysis. Data are presented as density plots of staining with 3B9 vs. 7-AAD. (B) Immunoblots of cell lysates of control and cisplatin-treated Jurkat cells were probed with 3B9 for expression of La (top panels) or actin as a loading control (bottom panels) at specified times. (C) Jurkat cells incubated in the absence or presence of increasing concentrations of cisplatin were labeled with cadaverine-biotin added at 100 μM for 48 h. Cells were stained with strepatavidin-Alexa488 and analyzed by flow cytometry. Data shown are MFI±SEM (n=3). […] Cells were analyzed at specified times (24 □, 48 ? and 72 h ▪) for sulforhodamine 101 staining. […]
Transglutaminase 2 (TG2)-mediated protein-protein crosslinking in apoptotic cells was investigated using a modification of a previously described method. […] Samples were vortexed and incubated for 5 min. before analysis by flow cytometry where fluorescence from Sytox Green and sulforhodamine were detected using FL-1 and FL-3, respectively. The degree of crosslinking in apoptotic cells was calculated as the ratio of the MFI of sulforhodamine staining in apoptotic cells to the MFI in control cells (protein crosslinking ratio). […]

[2] = tested on: PANC-1 cells; assay: MTS proliferation assay with TSA and gemcitabine; assay type: cell-based, human; conditions: TSA alone
Protocol: FIG. 40 depicts that gemcitabine and TSA synergise to reduce proliferation rates among PANC-1 cells in vitro. PANC-1 cells (2×10^4 cells) were seeded in flat bottom 96-well plates overnight using phenol-free RPMI-1640 medium containing 10% FCS (medium). A serial dilution of 2×10^4 cells was used to construct a standard curve for the MTS assay. Triplicate wells were incubated with increasing concentrations of TSA (nM) with or without the addition of increasing concentrations of gemcitabine. Three identical plates were incubated for 24, 48 or 72 h then medium was decanted and fresh medium (100 μL) containing 20 μL MTS/PMS substrate was added to all wells. Assays were performed according to the manufacturer's instructions. The change in the absorbance reading over time was calculated for each condition in units of change per 12 h (upper panel), which was converted to units of cell number change per 12 h (lower panel) using a standard curve of the absorbance reading as a function of […] (r^2=0.99).

[3] = tested on: Jurkat cells; assay: Apomab-specific binding to cisplatin-treated Jurkat cells with TSA; assay type: cell-based, human; conditions: TSA added to 10 μg/mL cisplatin, 48 h
Protocol: FIG. 36 depicts that the histone deacetylase inhibitor (HDACi) trichostatin A (TSA) exerts dose-dependent synergy with cisplatin to augment Apomab-specific binding to dead Jurkat cells. Jurkat cells were incubated for 48 h with 10 μg/mL cisplatin together with increasing concentrations of TSA. Cells were subjected to indirect immunofluorescence staining using Apomab or its Sal5 isotype control mAb and viability was assessed using 7-AAD. Apomab-specific binding was calculated as the Net MFI after gating on 7-AAD^+ events. Data are presented as the mean±SEM from two separate experiments. (A) Apomab-specific binding to cisplatin-treated Jurkat cells is plotted as a function of TSA concentration. […]
(§1) Apoptosis or cell death was induced by adding cytotoxic drugs to culture media at the specified concentrations. […] Control (untreated) cells had ≧90% viability determined by PI or trypan blue staining (data not shown). […]
Indirect immunofluorescence staining was performed using purified mouse antibodies at 5 μg/mL for 30 min. at room temperature (RT) in PBS followed by Alexa488-conjugated anti-mouse IgG at 2 μg/mL for 30 min. at RT in PBS. […] Cell viability was assessed by the exclusion of PI (0.5 μg/mL) and detected using the FL-2 channel (585 nm filter) or by the exclusion of 7-AAD (2 μg/mL for 15 min. at RT) and detected using the FL-3 channel (>650 nm filter). […]

[4] = tested on: PANC-1 cells; assay: Cell death (7-AAD) and 3B9-specific binding after gemcitabine and TSA; assay type: cell-based, human; conditions: TSA alone; data not shown
Protocol: FIG. 15 depicts that 3B9 binding to dead PANC-1 cells is augmented after combination treatment with gemcitabine and TSA produced additive cytotoxicity and DNA-damaging effects. PANC-1 cells were incubated with increasing concentrations of gemcitabine in the absence (clear columns) or presence of 100 ng/mL (hatched columns) or 200 ng/mL (filled columns) of TSA. Analysis was done for viability using 7-AAD (A), 3B9-specific binding (B) and DNA damage using γH2AX staining (C). Data are presented as mean±SEM from three independent experiments. Photomicrographs show PANC-1 cells treated with gemcitabine and TSA (+) or not (−), which were stained with γH2AX-specific mAb and 7-AAD (D).
PANC-1 cells (2×10^4 cells) were seeded in flat bottom 96-well plates overnight using phenol-free RPMI-1640 medium containing 10% FCS (medium). Cells were incubated with the specified concentrations of gemcitabine or TSA singly or in combination. Cells were collected (from media and EDTA detached adherent cells) and subjected to indirect immunofluorescence staining with Apomab or its Sal5 isotype control mAb and assessed for viability with 7-AAD staining. […]
as §1

[5] = tested on: Raji; assay: Binding of La-specific mAb (3B9-FITC) to apoptotic human cancer cell lines, dual-colour flow cytometry; conditions: 2 μM staurosporine, 20 μg/mL etoposide or 0.1 μg/mL vincristine, 3B9-FITC and PI

CN(C)c1cccc2c(S(=O)(=O)NCCCCCN)cccc12 [MDC, monodansylcadaverine]
effect on protein crosslinking (sulforhodamine crosslinking ratio) [1]: dose-dependent inhibitory effect

CC(/C=C/C(=O)NO)=C\[C@@H](C)C(=O)c1ccc(N(C)C)cc1 [TSA, trichostatin A]
effect on proliferation of PANC-1 cells [2]: inhibited proliferation
Apomab-specific binding to dead Jurkat cells [3]: dose-dependent increase
3B9 binding in comparison with control PANC-1 cells [4]: did not alter 3B9 binding

CC[C@]1(O)C[C@H]2CN(CCc3c([nH]c4ccccc34)[C@@](C(=O)OC)(c3cc4c(cc3OC)N(C=O)[C@H]3[C@@](O)(C(=O)OC)[C@H](OC(C)=O)[C@]5(CC)C=CCN6CC[C@]43[C@@H]65)C2)C1 [Vincristine, vincristine]
percentages of PI+ and 3B9+ events after subtraction of control (PI+ and Sal5+) events [5]: 9.8%
